Reference: patent US9078444B2, “Isothiazoline derivatives as insecticidal compounds” (Syngenta Participations AG, priority 2011, dated 2015)
Where two headings read alike, the source gives them in different places.

Legend:
Format in all cases: in vivo
Spodoptera littoralis [1] = experiment: Spodoptera littoralis persistence test on sprayed cotton plants (increased safety profile / bio-degradability); details: for Control after 10 days/%: leaves excised 10 days after treatment; for pest or weed control at 12.5 ppm: Spodoptera littoralis
Experimental: Biological Examples Showing Increased Safety Profile:
Spodoptera littoralis (Egyptian Cotton Leafworm)
Cotton plants in the 5th leaf stage (around 5 weeks old) are treated in an automated turn table spray chamber. Plants are stored in the greenhouse length during the whole test period.
2, 16 and optionally 10 days after treatment 4 leaves from each sample are excised, placed into 14 cm plastic petri dishes on wet filter paper. The infestation of 10 L3-Spodoptera littoralis is made immediately afterwards. After an incubation period of 6 days the samples are checked for mortality.
In the following series of experiments the compounds of the invention are compared with the corresponding isoxazoline analogues from the prior art on Spodoptera littoralis (Egyptian cotton leafworm) performed as described in the method above.

Heliothis virescens = Heliothis virescens (tobacco budworm) egg test on artificial diet; details: 96 h, 200 ppm (concentration in well 18 ppm), eggs on artificial diet, egg mortality, larval mortality, growth regulation after 4 days
Experimental: Heliothis virescens (Tobacco Budworm): Eggs (0-24 h old) were placed in 24-well microtiter plate on artificial diet and treated with test solutions at an application rate of 200 ppm (concentration in well 18 ppm) by pipetting. After an incubation period of 4 days, samples were checked for egg mortality, larval mortality, and growth regulation.

Plutella xylostella = Plutella xylostella (diamond back moth) artificial diet test; details: 144 h, 200 ppm (concentration in well 18 ppm), L2 larvae, larval mortality and growth regulation after 6 days
Experimental: (§1) Plutella xylostella (Diamond Back Moth): 24-well microtiter plate (MTP) with artificial diet was treated with test solutions at an application rate of 200 ppm (concentration in well 18 ppm) by pipetting. After drying, the MTPs were infested with L2 larvae (7-12 per well). After an incubation period of 6 days, samples were checked for larval mortality and growth regulation.

Tetranychus urticae = Tetranychus urticae (two-spotted spider mite) bean leaf disc test; details: foliar, 192 h, 200 ppm sprayed on bean leaf discs, mixed ages, egg, larval and adult mortality 8 days later
Source text: Tetranychus urticae (Two-Spotted Spider Mite): Bean leaf discs on agar in 24-well microtiter plates were sprayed with test solutions at an application rate of 200 ppm. After drying, the leaf discs are infested with mite populations of mixed ages. 8 days later, discs are checked for egg mortality, larval mortality, and adult mortality.

Spodoptera littoralis [2] = experiment: Spodoptera littoralis (Egyptian cotton leafworm) cotton leaf disc test; details: foliar, 72 h, 200 ppm sprayed on cotton leaf discs, mortality, feeding behavior, growth regulation 3 days after treatment
Experimental: Spodoptera littoralis (Egyptian Cotton Leafworm): Cotton leaf discs were placed on agar in a 24-well microtiter plate and sprayed with test solutions at an application rate of 200 ppm. After drying, the leaf discs were infested with […]. The samples were checked for mortality, feeding behavior, and growth regulation 3 days after treatment (DAT).

Diabrotica balteata = Diabrotica balteata (corn root worm) artificial diet test; details: 120 h, 200 ppm (concentration in well 18 ppm), L2 larvae, larval mortality and growth regulation after 5 days
Experimental: as §1, with “Diabrotica balteata (Corn Root Worm): A” for “Plutella xylostella (Diamond Back Moth):”, “(6-10” for “(7-12”, “5” for “6”

Thrips tabaci = Thrips tabaci (onion thrips) sunflower leaf disc test; details: foliar, 168 h, 200 ppm sprayed on sunflower leaf discs, mixed ages, mortality after 7 days
Experimental: Thrips tabaci (Onion Thrips): Sunflower leaf discs were placed on agar in a 24-well microtiter plate and sprayed with test solutions at an application rate of 200 ppm. After drying, the leaf discs were infested with a thrips population of mixed ages. After an incubation period of 7 days, samples were checked for mortality.

[3] = 12.5 ppm on cotton plants, 10 L3 larvae, mortality after 6 days incubation
[4] = 48 h, 12.5 ppm on cotton plants, leaves excised 2 days after treatment, 10 L3 larvae, mortality after 6 days incubation, read-out: Control after 2 days/%
[5] = 384 h, 12.5 ppm on cotton plants, leaves excised 16 days after treatment, 10 L3 larvae, mortality after 6 days incubation, read-out: Control after 16 days/%

Row | Compound | Control after 10 days/% (Spodoptera littoralis [1]; [3]) [%] | pest or weed control at 12.5 ppm (Spodoptera littoralis [1]; [4]) [%] | pest or weed control at 12.5 ppm (Spodoptera littoralis [1]; [5]) [%] | pest or weed control at 200 ppm (Heliothis virescens) [%] | pest or weed control at 200 ppm (Plutella xylostella) [%] | pest or weed control at 200 ppm (Tetranychus urticae) [%] | pest or weed control at 200 ppm (Spodoptera littoralis [2]) [%] | pest or weed control at 200 ppm (Diabrotica balteata) [%] | pest or weed control at 200 ppm (Thrips tabaci) [%] | pest or weed control at 12.5 ppm (Spodoptera littoralis [1]; 48 h, read-out: Control after 2 days/%) [%] | pest or weed control at 12.5 ppm (Spodoptera littoralis [1]; 384 h, read-out: Control after 16 days/%) [%] | Control after 2 days/% (Spodoptera littoralis [1]; 12.5 ppm on cotton plants, leaves excised 2 days after treatment, 10 L3 larvae, mortality after 6 days incubation) [%] | Control after 16 days/% (Spodoptera littoralis [1]; 12.5 ppm on cotton plants, leaves excised 16 days after treatment, 10 L3 larvae, mortality after 6 days incubation) [%]
1 | Cc1cc(C2=NOC(c3cc(Cl)cc(Cl)c3)(C(F)(F)F)C2)ccc1C(=O)NCc1ccccn1 (centres unmarked) [Compound 1-061 from EP1731512, reference compound] | 100 | 100 | 100 | – | – | – | – | – | – | – | – | – | –
2 | Cc1cc(C2=NOC(c3cc(Cl)cc(Cl)c3)(C(F)(F)F)C2)ccc1C(=O)NCC(=O)NCC(F)(F)F (centres unmarked) [Compound 3-086 from EP1731512, reference compound] | 100 | 100 | 100 | – | – | – | – | – | – | – | – | – | –
3 | Cc1cc(C2=NSC(c3cc(Cl)cc(Cl)c3)(C(F)(F)F)C2)ccc1C(=O)NCC(=O)NCC(F)(F)F (centres unmarked) [Compound A01, 4-[5-(3,5-dichlorophenyl)-5-(trifluoromethyl)-4H-isothiazol-3-yl]-2-methyl-N-[2-oxo-2-(2,2,2-trifluoroethylamino)ethyl]benzamide] | 60 | 100 | 10 | ≥ 80 | ≥ 80 | ≥ 80 | ≥ 80 | ≥ 80 | ≥ 80 | – | – | – | –
4 | Cc1cc(C2=NSC(c3cc(Cl)cc(Cl)c3)(C(F)(F)F)C2)ccc1C(=O)NC1CS(=O)(=O)C1 (centres unmarked) [Compound A02, 4-[5-(3,5-dichlorophenyl)-5-(trifluoromethyl)-4H-isothiazol-3-yl]-N-(1,1-dioxothietan-3-yl)-2-methyl-benzamide] | 35 | – | – | ≥ 80 | ≥ 80 | ≥ 80 | ≥ 80 | ≥ 80 | ≥ 80 | 100 | 5 | – | –
5 | Cc1cc(C2=NOC(c3cc(Cl)cc(Cl)c3)(C(F)(F)F)C2)ccc1C(=O)NC1CS(=O)(=O)C1 (centres unmarked) [Compound A10 from WO2009/080250, reference compound] | 100 | 100 | 100 | – | – | – | – | – | – | – | – | – | –
6 | Cc1cc(C2=NSC(c3cc(Cl)cc(Cl)c3)(C(F)(F)F)C2)ccc1C(=O)NC(C)c1ccccc1 (centres unmarked) [Compound A12] | – | 30 | – | ≥ 80 | ≥ 80 | ≥ 80 | ≥ 80 | ≥ 80 | ≥ 80 | – | – | – | –
7 | Cc1cc(C2=NSC(c3cc(Cl)cc(Cl)c3)(C(F)(F)F)C2)ccc1C(=O)NCc1ccccn1 (centres unmarked) [Compound A16] | 25 | 100 | 10 | ≥ 80 | ≥ 80 | ≥ 80 | ≥ 80 | ≥ 80 | ≥ 80 | – | – | – | –
8 | Cc1cc(C2=NSC(c3cc(Cl)cc(Cl)c3)(C(F)(F)F)C2)ccc1C(=O)NC1CCC1 (centres unmarked) [Compound A24] | – | – | – | – | – | – | – | – | – | – | – | 100 | 0
9 | Cc1cc(C2=NSC(c3cc(Cl)cc(Cl)c3)(C(F)(F)F)C2)ccc1C(=O)NC1(C#N)CC1 (centres unmarked) [Compound A45] | – | 75 | 0 | ≥ 80 | ≥ 80 | ≥ 80 | ≥ 80 | ≥ 80 | ≥ 80 | – | – | – | –
10 | Cc1cc(C2=NSC(c3cc(Cl)cc(Cl)c3)(C(F)(F)F)C2)ccc1C(=O)NCC(C)C (centres unmarked) [Compound A46] | – | 40 | 0 | ≥ 80 | ≥ 80 | ≥ 80 | ≥ 80 | ≥ 80 | ≥ 80 | – | – | – | –
11 | Cc1cc(C2=NSC(c3cc(Cl)cc(Cl)c3)(C(F)(F)F)C2)ccc1C(=O)NCC1CC1 (centres unmarked) [Compound A53] | – | 85 | 0 | ≥ 80 | ≥ 80 | ≥ 80 | ≥ 80 | ≥ 80 | ≥ 80 | – | – | – | –
12 | Cc1cc(C2=NSC(c3cc(Cl)cc(Cl)c3)(C(F)(F)F)C2)ccc1C(=O)Nc1ccc(F)cc1 (centres unmarked) [Compound A59] | – | 100 | 10 | ≥ 80 | ≥ 80 | ≥ 80 | ≥ 80 | ≥ 80 | ≥ 80 | – | – | – | –
13 | N#Cc1cc(C2=NSC(c3cc(Cl)cc(Cl)c3)(C(F)(F)F)C2)ccc1-n1cncn1 (centres unmarked) [Compound B1, 5-[5-(3,5-dichlorophenyl)-5-(trifluoromethyl)-4,5-dihydro-isothiazol-3-yl]-2-(1,2,4-triazol-1-yl)benzonitrile] | – | – | – | ≥ 80 | ≥ 80 | ≥ 80 | ≥ 80 | ≥ 80 | ≥ 80 | – | – | – | –
14 | N#Cc1cc(C2=NS[C@@](c3cc(Cl)c(Cl)c(Cl)c3)(C(F)(F)F)C2)ccc1-n1cncn1 [Compound B2, 2-(1,2,4-triazol-1-yl)-5-[(5S)-5-(3,4,5-trichlorophenyl)-5-(trifluoromethyl)-4H-isothiazol-3-yl]benzonitrile] | – | – | – | ≥ 80 | ≥ 80 | ≥ 80 | ≥ 80 | ≥ 80 | ≥ 80 | – | – | – | –
15 | CCO/N=C/NC(=O)c1ccc(C2=NSC(c3cc(Cl)cc(Cl)c3)(C(F)(F)F)C2)cc1C (centres unmarked) [Compound C2, 4-[5-(3,5-dichlorophenyl)-5-(trifluoromethyl)-4H-isothiazol-3-yl]-N-[(E)-ethoxyiminomethyl]-2-methyl-benzamide] | – | – | – | ≥ 80 | ≥ 80 | ≥ 80 | ≥ 80 | ≥ 80 | ≥ 80 | – | – | – | –
16 | Cc1cc(C2=NSC(c3cc(Cl)c(Cl)c(Cl)c3)(C(F)(F)F)C2)ccc1C(=O)NC1CS(=O)(=O)C1 (centres unmarked) [Compound D2, N-(1,1-dioxothietan-3-yl)-2-methyl-4-[5-(3,4,5-trichlorophenyl)-5-(trifluoromethyl)-4H-isothiazol-3-yl]benzamide] | – | – | – | ≥ 80 | ≥ 80 | ≥ 80 | ≥ 80 | ≥ 80 | ≥ 80 | – | – | – | –
17 | Cc1cc(C2=NSC(c3cc(Cl)c(Cl)c(Cl)c3)(C(F)(F)F)C2)ccc1C(=O)NC1C[S+]([O-])C1 (centres unmarked) [Compound D3, 2-methyl-N-(1-oxothietan-3-yl)-4-[5-(3,4,5-trichlorophenyl)-5-(trifluoromethyl)-4H-isothiazol-3-yl]benzamide] | – | – | – | ≥ 80 | ≥ 80 | ≥ 80 | ≥ 80 | ≥ 80 | ≥ 80 | – | – | – | –
